Laboratory results taken from patent US20100204203A1, “Chemical Compounds 637: Pyridopyrimidinediones as PDE4 Inhibitors” (priority 2007, published 2010).
Counter-ions that a name gives are not always drawn.

Target: recombinant Human Phosphodiesterase B2 (PDE4B2) (Homo sapiens, UniProt Q07343)
Experiment: Human Phosphodiesterase B2 Radiometric Assay (yttrium silicate SPA beads, [3H]cyclic AMP)
Format: biochemical
Conditions: recombinant human PDE4B2, radiometric SPA assay, 8 nM [3H]cyclic AMP; read-out: PDE4B2 pIC50 (converted)
Procedure, shortened: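 Read-out is scintillation proximity: yttrium silicate beads (with 18 mM ZnSO4, added to stop the reaction) bind 5′AMP formed from 8 nM [3H]cAMP over 20 min. Beforehand, compound and 0.1 mg/mL enzyme were preincubated 30 min at 30 °C in pH 7.5 HEPES buffer with MgCl2, EGTA and Brij 35; pIC50 values were curve-fitted.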

Chain of recombinant Human Phosphodiesterase B2 (PDE4B2) (Q07343 1-564 isoform Q07343-2): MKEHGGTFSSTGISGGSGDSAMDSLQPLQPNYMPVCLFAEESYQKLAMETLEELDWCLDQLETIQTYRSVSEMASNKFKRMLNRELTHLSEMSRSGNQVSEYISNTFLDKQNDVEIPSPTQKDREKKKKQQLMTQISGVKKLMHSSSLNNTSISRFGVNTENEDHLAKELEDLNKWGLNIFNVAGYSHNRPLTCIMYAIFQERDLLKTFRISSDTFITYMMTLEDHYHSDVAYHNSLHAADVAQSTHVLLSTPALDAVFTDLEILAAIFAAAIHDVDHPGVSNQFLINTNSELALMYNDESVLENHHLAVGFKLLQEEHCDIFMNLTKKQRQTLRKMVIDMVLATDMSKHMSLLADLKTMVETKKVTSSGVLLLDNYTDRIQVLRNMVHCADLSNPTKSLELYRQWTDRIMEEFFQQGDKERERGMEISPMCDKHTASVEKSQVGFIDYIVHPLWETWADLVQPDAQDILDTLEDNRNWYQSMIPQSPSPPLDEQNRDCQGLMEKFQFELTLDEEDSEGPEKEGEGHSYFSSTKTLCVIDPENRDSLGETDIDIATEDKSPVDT

| IC50 [nM] | Compound |
| --- | --- |
| 0.0794 | O=C(N[C@H]1CC[C@@H](n2c(=O)c3cc(F)cnc3n(-c3cccc(-c4ccccc4CN4CCOCC4)c3)c2=O)CC1)c1ccccc1O [Example 63, N-{cis-4-[6-fluoro-1-[2′-(morpholin-4-ylmethyl)biphenyl-3-yl]-2,4-dioxo-1,4-dihydropyrido[2,3-d]pyrimidin-3(2H)-yl]cyclohexyl}-2-hydroxybenzamide] |
| 0.0794 | CNCCNCc1ccc(-c2cccc(-n3c(=O)n([C@H]4CC[C@@H](NC(=O)c5cn6cc(F)ccc6n5)CC4)c(=O)c4cc(F)cnc43)c2)cc1 [Example 64, 6-fluoro-N-{cis-4-[6-fluoro-1-[4′-({[2-(methylamino)ethyl]amino}methyl)biphenyl-3-yl]-2,4-dioxo-1,4-dihydropyrido[2,3-a]pyrimidin-3(2H)-yl]cyclohexyl}imidazo[1,2-a]pyridine-2-carboxamide] |
| 0.398 | CC(=O)N[C@H]1CC[C@@H](n2c(=O)c3cc(F)cnc3n(-c3cccc(-c4ccccc4)c3)c2=O)CC1 [Example 65, N-[cis-4-(1-biphenyl-3-yl-6-fluoro-2,4-dioxo-1,4-dihydropyrido[2,3-d]pyrimidin-3(2H)-yl)cyclohexyl]acetamide] |
| 63.1 | CN(C)[C@H]1CC[C@@H](n2c(=O)c3cc(F)cnc3n(-c3cccc(-c4ccccc4)c3)c2=O)CC1 [Example 66, 1-biphenyl-3-yl-3-[cis-4-(dimethylamino)cyclohexyl]-6-fluoropyrido[2,3-d]pyrimidine-2,4(1H,3H)-dione] |
| 2 | NC1(C(=O)N[C@H]2CC[C@@H](n3c(=O)c4cc(F)cnc4n(-c4cccc(-c5ccccc5CN5CCOCC5)c4)c3=O)CC2)CCCC1 [Example 70, 1-amino-N-{cis-4-[6-fluoro-1-[2′-(morpholin-4-ylmethyl)biphenyl-3-yl]-2,4-dioxo-1,4-dihydropyrido[2,3-d]pyrimidin-3(2H)-yl]cyclohexyl}cyclopentanecarboxamide trifluoroacetate salt] |
| 0.0794 | CN1CCN(Cc2cc(O)ccc2-c2cccc(-n3c(=O)n([C@H]4CC[C@@H](NC(=O)c5cn6cc(F)ccc6n5)CC4)c(=O)c4cc(F)cnc43)c2)CC1 [Example 71, 6-fluoro-N-{cis-4-[6-fluoro-1-{4′-hydroxy-2′-[(4-methylpiperazin-1-yl)methyl]biphenyl-3-yl}-2,4-dioxo-1,4-dihydropyrido[2,3-d]pyrimidin-3(2H)-yl]cyclohexyl}imidazo[1,2-a]pyridine-2-carboxamide trifluoroacetate salt] |
| 0.0501 | O=C(N[C@H]1CC[C@@H](n2c(=O)c3cc(F)cnc3n(-c3cccc(-c4ccc(O)cc4CN4CCNCC4)c3)c2=O)CC1)c1cn2cc(F)ccc2n1 [Example 72, 6-fluoro-N-{cis-4-[6-fluoro-1-[4′-hydroxy-2′-(piperazin-1-ylmethyl)biphenyl-3-yl]-2,4-dioxo-1,4-dihydropyrido[2,3-d]pyrimidin-3(2H)-yl]cyclohexyl}imidazo[1,2-a]pyridine-2-carboxamide trifluoroacetate salt] |
| 0.0251 | CNC1CCN(Cc2cc(O)ccc2-c2cccc(-n3c(=O)n([C@H]4CC[C@@H](NC(=O)c5cn6cc(F)ccc6n5)CC4)c(=O)c4cc(F)cnc43)c2)CC1 [Example 73, 6-fluoro-N-{cis-4-[6-fluoro-1-(4′-hydroxy-2′-{[4-(methylamino)piperidin-1-yl]methyl}biphenyl-3-yl)-2,4-dioxo-1,4-dihydropyrido[2,3-d]pyrimidin-3(2H)-yl]cyclohexyl}imidazo[1,2-a]pyridine-2-carboxamide trifluoroacetate salt] |
| 0.794 | O=c1c2cc(F)cnc2n(-c2cccc(-c3ccccc3)c2)c(=O)n1[C@H]1CC[C@@H](NCc2cn3cc(F)ccc3n2)CC1 [Example 74, 1-biphenyl-3-yl-6-fluoro-3-(cis-4-{[(6-fluoroimidazo[1,2-a]pyridin-2-yl)methyl]amino}cyclohexyl)pyrido[2,3-d]pyrimidine-2,4(1H,3H)-dione] |
| 0.316 | O=c1c2cc(F)cnc2n(-c2cccc(-c3ccc(CN4CCNCC4)cc3)c2)c(=O)n1[C@H]1CC[C@@H](NCc2cn3cc(F)ccc3n2)CC1 [Example 75, 6-fluoro-3-(cis-4-{[(6-fluoroimidazo[1,2-a]pyridin-2-yl)methyl]amino}cyclohexyl)-1-[4′-(piperazin-1-ylmethyl)biphenyl-3-yl]pyrido[2,3-d]pyrimidine-2,4(1H,3H)-dione] |
| 0.316 | O=c1c2cc(F)cnc2n(-c2cccc(-c3ccc(CN4CCOCC4)cc3)c2)c(=O)n1[C@H]1CC[C@@H](NCc2cn3cc(F)ccc3n2)CC1 [Example 76, 6-fluoro-3-(cis-4-{[(6-fluoroimidazo[1,2-a]pyridin-2-yl)methyl]amino}cyclohexyl)-1-[4′-(morpholin-4-ylmethyl)biphenyl-3-yl]pyrido[2,3-d]pyrimidine-2,4(1H,3H)-dione ditrifluoroacetic acid] |
| 0.0251 | CNCCOc1ccc(-c2cccc(-n3c(=O)n([C@H]4CC[C@@H](NC(=O)c5cn6cc(F)ccc6n5)CC4)c(=O)c4cc(F)cnc43)c2)cc1 [Example 77, 6-fluoro-N-{cis-4-[6-fluoro-1-{4′-[2-(methylamino)ethoxy]biphenyl-3-yl}-2,4-dioxo-1,4-dihydropyrido[2,3-d]pyrimidin-3(2H)-yl]cyclohexyl}imidazo[1,2-c]pyridine-2-carboxamide] |
| 0.0398 | CN(C)CCOc1ccc(-c2cccc(-n3c(=O)n([C@H]4CC[C@@H](NC(=O)c5cn6cc(F)ccc6n5)CC4)c(=O)c4cc(F)cnc43)c2)cc1 [Example 78, N-{cis-4-[1-{4′-[2-(dimethylamino)ethoxy]biphenyl-3-yl}-6-fluoro-2,4-dioxo-1,4-dihydropyrido[2,3-d]pyrimidin-3(2H)-yl]cyclohexyl}-6-fluoroimidazo[1,2-a]pyridine-2-carboxamide] |
| 0.02 | O=C(N[C@H]1CC[C@@H](n2c(=O)c3cc(F)cnc3n(-c3cccc(-c4ccc(OCCN5CCCC5)cc4)c3)c2=O)CC1)c1cn2cc(F)ccc2n1 [Example 79, 6-fluoro-N-{cis-4-[6-fluoro-2,4-dioxo-1-[4′-(2-pyrrolidin-1-ylethoxy)biphenyl-3-yl]-1,4-dihydropyrido[2,3-d]pyrimidin-3(2H)-yl]cyclohexyl}imidazo[1,2-a]pyridine-2-carboxamide] |
| 0.0794 | O=C(N[C@H]1CC[C@@H](n2c(=O)c3cc(F)cnc3n(-c3cccc(-c4ccc(F)cc4O)c3)c2=O)CC1)c1cn2cc(F)ccc2n1 [Example 80, 6-fluoro-N-{cis-4-[6-fluoro-1-(4′-fluoro-2′-hydroxybiphenyl-3-yl)-2,4-dioxo-1,4-dihydropyrido[2,3-d]pyrimidin-3(2H)-yl]cyclohexyl}imidazo[1,2-a]pyridine-2-carboxamide] |
| 0.00631 | O=C(N[C@H]1CC[C@@H](n2c(=O)c3cc(F)cnc3n(-c3cccc(-c4ccc(OCCCN5CCOCC5)cc4)c3)c2=O)CC1)c1cn2cc(F)ccc2n1 [Example 81, 6-fluoro-N-{cis-4-[6-fluoro-1-[4′-(3-morpholin-4-ylpropoxy)biphenyl-3-yl]-2,4-dioxo-1,4-dihydropyrido[2,3-d]pyrimidin-3(2H)-yl]cyclohexyl}imidazo[1,2-a]pyridine-2-carboxamide] |
| 0.2 | CN(C)CCOc1cc(F)ccc1-c1cccc(-n2c(=O)n([C@H]3CC[C@@H](NC(=O)c4cn5cc(F)ccc5n4)CC3)c(=O)c3cc(F)cnc32)c1 [Example 82, N-{cis-4-[1-{2′-[2-(dimethylamino)ethoxy]-4′-fluorobiphenyl-3-yl}-6-fluoro-2,4-dioxo-1,4-dihydropyrido[2,3-d]pyrimidin-3 (2H)-yl]cyclohexyl}-6-fluoroimidazo[1,2-a]pyridine-2-carboxamide] |
| 6.31 | CN(C)CCOc1cc(F)ccc1-c1cccc(-n2c(=O)n([C@H]3CC[C@@H](N(CCN(C)C)C(=O)c4cn5cc(F)ccc5n4)CC3)c(=O)c3cc(F)cnc32)c1 [Example 83, N-{cis-4-[1-{2′-[2-(dimethylamino)ethoxy]-4′-fluorobiphenyl-3-yl}-6-fluoro-2,4-dioxo-1,4-dihydropyrido[2,3-d]pyrimidin-3(2H)-yl]cyclohexyl}-N-[2-(dimethylamino)ethyl]-6-fluoroimidazo[1,2-a]pyridine-2-carboxamide] |
| 0.2 | CN(C)CCCOc1cc(F)ccc1-c1cccc(-n2c(=O)n([C@H]3CC[C@@H](NC(=O)c4cn5cc(F)ccc5n4)CC3)c(=O)c3cc(F)cnc32)c1 [Example 84, N-{cis-4-[1-{2′-[3-(dimethylamino)propoxy]-4′-fluorobiphenyl-3-yl}-6-fluoro-2,4-dioxo-1,4-dihydropyrido[2,3-d]pyrimidin-3(2H)-yl]cyclohexyl}-6-fluoroimidazo[1,2-a]pyridine-2-carboxamide] |
| 0.316 | O=C(N[C@H]1CC[C@@H](n2c(=O)c3cc(F)cnc3n(-c3cccc(-c4ccc(F)cc4OCCN4CCNCC4)c3)c2=O)CC1)c1cn2cc(F)ccc2n1 [Example 85, 6-fluoro-N-{cis-4-[6-fluoro-1-[4′-fluoro-2′-(2-piperazin-1-ylethoxy)biphenyl-3-yl]-2,4-dioxo-1,4-dihydropyrido[2,3-d]pyrimidin-3(2H)-yl]cyclohexyl}imidazo[1,2-a]pyridine-2-carboxamide] |
| 31.6 | O=c1c2cc(F)cnc2n(-c2cccc(-c3ccccc3)c2)c(=O)n1[C@H]1CC[C@@H](NCCO)CC1 [Example 86, 1-biphenyl-3-yl-6-fluoro-3-{cis-4-[(2-hydroxyethyl)amino]cyclohexyl}pyrido[2,3-d]pyrimidine-2,4(1H,3H)-dione] |

| Compound | IC50 [nM] |
| --- | --- |
| C[N+](C)(C)Cc1ccc(-c2cccc(-n3c(=O)n([C@H]4CC[C@@H](NC(=O)c5cn6cc(F)ccc6n5)CC4)c(=O)c4cc(F)cnc43)c2)cc1 [Example 87, {3-[6-fluoro-3-(cis-4-{[(6-fluoroimidazo[1,2-a]pyridin-2-yl)carbonyl]amino}cyclohexyl)-2,4-dioxo-3,4-dihydropyrido[2,3-a]pyrimidin-1(2H)-yl]biphenyl-4-yl]-N,N,N-trimethylmethanaminium iodide] | 0.316 |
